Where two headings read alike, the source gives them in different places.
Assays:
[1] = system: Cabbage Looper (Trichoplusia ni, TRIPNI); assay: Bioassays on Cabbage Looper (CL), 128-well diet tray assay; format: in vivo; settings: Trichoplusia ni
How it was run: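 Percent mortality, averaged across eight replicate wells, after second-instar larvae (1–5 per well) fed for five to seven days on diet dosed at 50 μg/cm^2. Compound was applied in acetone-water 90:10 and dried; trays kept vented at 25° C under 14:10 photoperiod.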

[2] = system: Beet Armyworm (Spodoptera exigua, LAPHEG); assay: Bioassays on Beet Armyworm (BAW), 128-well diet tray assay; format: in vivo; settings: Spodoptera exigua
How it was run: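 Second-instar larvae, one to five per well, were placed on artificial diet surface-treated with 50 μg/cm^2 compound in 90:10 acetone-water, eight wells per treatment. Trays were held 5–7 days at 25 °C, 14:10 light-dark. Percent mortality per well was averaged over eight wells.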

[3] = Table ABC: Biological Results, species CL, read-out: CL
[4] = Table ABC: Biological Results, species BAW, read-out: BAW
[5] = Cabbage Looper, rating class, read-out: CL
[6] = Beet Armyworm, rating class, read-out: BAW
[7] = Cabbage Looper, Table ABC / ABC-DP rating, read-out: CL rating
[8] = Beet Armyworm, Table ABC / ABC-DP rating, read-out: BAW rating

SMILES	pest or weed control at 50 µg/cm2 [1, 3]	pest or weed control at 50 µg/cm2 [2, 4]	pest or weed control at 50 µg/cm2 [1, 5]	pest or weed control at 50 µg/cm2 [2, 6]	further results
C=C(F)c1cc(F)cc(F)c1NC(=O)c1cc(NC(=O)[C@H]2[C@H](c3cc(Cl)cc(Cl)c3)C2(Cl)Cl)ccc1Cl (relative stereo) [F1322, trans-2-Chloro-5-(2,2-dichloro-3-(3,5-dichlorophenyl)cyclopropane-1-carboxamido)-N-(2,4-difluoro-6-(1-fluorovinyl)phenyl)benzamide]	50 to 100%	50 to 100%			
O=C(Nc1ccc(F)c(NC(=O)C(F)F)c1F)c1cc(NC(=O)[C@H]2[C@H](c3cc(Cl)c(F)c(Cl)c3)C2(Cl)Cl)ccc1Cl (relative stereo) [F1331, trans-2-Chloro-5-(2,2-dichloro-3-(3,5-dichloro-4-fluorophenyl)cyclopropane-1-carboxamido)-N-(3-(2,2-difluoroacetamido)-2,4-difluorophenyl)benzamide]	50 to 100%	50 to 100%			
O=C(Nc1ccc(F)c(NC(=O)C(F)(F)F)c1F)c1cc(NC(=O)[C@H]2[C@H](c3cc(Cl)c(F)c(Cl)c3)C2(Cl)Cl)ccc1Cl (relative stereo) [F1332, trans-2-Chloro-5-(2,2-dichloro-3-(3,5-dichloro-4-fluorophenyl)cyclopropane-1-carboxamido)-N-(2,4-difluoro-3-(2,2,2-trifluoroacetamido)phenyl)benzamide]	50 to 100%	50 to 100%			
Cc1cc(NCc2ccc(NC(=O)OC(C)(C)C)cc2)ccc1NC(=O)c1cc(NC(=O)[C@H]2[C@H](c3cc(Cl)cc(Cl)c3)C2(Cl)Cl)ccc1Cl (relative stereo) [F1348, trans-tert-Butyl (4-(((4-(2-chloro-5-(2,2-dichloro-3-(3,5-dichlorophenyl)cyclopropane-1-carboxamido)benzamido)-3-methylphenyl)amino)methyl)phenyl)carbamate]	50 to 100%	50 to 100%			
O=C(Nc1ccc(Cl)c(NC(=O)C(F)(F)F)c1)c1cc(NC(=O)[C@H]2[C@H](c3ccc(F)c(Cl)c3)C2(Cl)Cl)ccc1Cl (relative stereo) [F1366, trans-2-Chloro-N-(4-chloro-3-(2,2,2-trifluoroacetamido)phenyl)-5-(2,2-dichloro-3-(3-chloro-4-fluorophenyl)cyclopropane-1-carboxamido)benzamide]	50 to 100%	50 to 100%			
Nc1c(Cl)cc(NC(=O)c2cc(NC(=O)[C@H]3[C@H](c4ccc(F)c(Cl)c4)C3(Cl)Cl)ccc2Cl)cc1Cl (relative stereo) [F1367, trans-N-(4-Amino-3,5-dichlorophenyl)-2-chloro-5-(2,2-dichloro-3-(3-chloro-4-fluorophenyl)cyclopropane-1-carboxamido)benzamide]	50 to 100%	50 to 100%			
N#Cc1cc(NC(=O)c2cc(NC(=O)[C@H]3[C@H](c4ccc(F)c(Cl)c4)C3(Cl)Cl)ccc2Cl)ccc1NC(=O)C(F)(F)F (relative stereo) [F1388, trans-2-Chloro-N-(3-cyano-4-(2,2,2-trifluoroacetamido)phenyl)-5-(2,2-dichloro-3-(3-chloro-4-fluorophenyl)cyclopropane-1-carboxamido)benzamide]	50 to 100%	50 to 100%			
Nc1c(F)ccc(NC(=O)c2cc(NC(=O)[C@H]3[C@H](c4ccc(F)c(I)c4)C3(Cl)Cl)ccc2Cl)c1F (relative stereo) [F1622, trans-N-(3-Amino-2,4-difluorophenyl)-2-chloro-5-(2,2-dichloro-3-(4-fluoro-3-iodophenyl)cyclopropane-1-carboxamido)benzamide]			50 to 100%	50 to 100%	
O=C(Nc1ccc(F)c(NC(=O)C(F)F)c1F)c1cc(NC(=O)[C@H]2[C@H](c3cc(Cl)c(Cl)c(Br)c3)C2(Cl)Cl)ccc1Cl (relative stereo) [F1623, trans-5-(3-(3-Bromo-4,5-dichlorophenyl)-2,2-dichlorocyclopropane-1-carboxamido)-2-chloro-N-(3-(2,2-difluoroacetamido)-2,4-difluorophenyl)benzamide]			50 to 100%	50 to 100%	
O=C(Nc1ccc(F)c(NC(=O)C(F)F)c1F)c1cc(NC(=O)[C@H]2[C@H](c3ccc(F)c(I)c3)C2(Cl)Cl)ccc1Cl (relative stereo) [F1624, trans-2-Chloro-5-(2,2-dichloro-3-(4-fluoro-3-iodophenyl)cyclopropane-1-carboxamido)-N-(3-(2,2-difluoroacetamido)-2,4-difluorophenyl)benzamide]			50 to 100%	50 to 100%	
CC(=O)Nc1c(F)cc(F)cc1NC(=O)c1cc(NC(=O)[C@H]2[C@H](c3cc(Cl)cc(Cl)c3)C2(Cl)Cl)ccc1Cl (relative stereo) [F1632, trans-N-(2-Acetamido-3,5-difluorophenyl)-2-chloro-5-(2,2-dichloro-3-(3,5-dichlorophenyl)cyclopropane-1-carboxamido)benzamide]			50 to 100%	50 to 100%	
CC(=O)Nc1cc(F)cc(F)c1NC(=O)c1cc(NC(=O)[C@H]2[C@H](c3cc(Cl)cc(Cl)c3)C2(Cl)Cl)ccc1Cl (relative stereo) [F1633, trans-N-(2-Acetamido-4,6-difluorophenyl)-2-chloro-5-(2,2-dichloro-3-(3,5-dichlorophenyl)cyclopropane-1-carboxamido)benzamide]			50 to 100%	50 to 100%	
CC(=O)Nc1cc(NC(=O)c2cc(NC(=O)[C@H]3[C@H](c4cc(Cl)cc(Cl)c4)C3(Cl)Cl)ccc2Cl)ccc1F (relative stereo) [F1638, trans-N-(3-Acetamido-4-fluorophenyl)-2-chloro-5-(2,2-dichloro-3-(3,5-dichlorophenyl)cyclopropane-1-carboxamido)benzamide]			50 to 100%	50 to 100%	
O=C(Nc1cc(F)cc(NC(=O)C(F)(F)F)c1)c1cc(NC(=O)[C@H]2[C@H](c3cc(Cl)cc(Cl)c3)C2(Cl)Cl)ccc1Cl (relative stereo) [F1639, trans-2-Chloro-5-(2,2-dichloro-3-(3,5-dichlorophenyl)cyclopropane-1-carboxamido)-N-(3-fluoro-5-(2,2,2-trifluoroacetamido)phenyl)benzamide]			50 to 100%	50 to 100%	
O=C(Nc1cc(NC(=O)C(F)(F)F)ccc1F)c1cc(NC(=O)[C@H]2[C@H](c3cc(Cl)cc(Cl)c3)C2(Cl)Cl)ccc1Cl (relative stereo) [F1640, trans-2-Chloro-5-(2,2-dichloro-3-(3,5-dichlorophenyl)cyclopropane-1-carboxamido)-N-(2-fluoro-5-(2,2,2-trifluoroacetamido)phenyl)benzamide]			50 to 100%	50 to 100%	
O=C(Nc1ccc(F)c(NC(=O)C(F)(F)F)c1)c1cc(NC(=O)[C@H]2[C@H](c3cc(Cl)cc(Cl)c3)C2(Cl)Cl)ccc1Cl (relative stereo) [F1641, trans-2-Chloro-5-(2,2-dichloro-3-(3,5-dichlorophenyl)cyclopropane-1-carboxamido)-N-(4-fluoro-3-(2,2,2-trifluoroacetamido)phenyl)benzamide]			50 to 100%	50 to 100%	
CCNC(=O)c1cc(NC(=O)[C@H]2[C@H](c3ccc(F)c(Cl)c3)C2(Cl)Cl)cc(F)c1Cl (relative stereo) [F2033, trans-2-Chloro-5-(2,2-dichloro-3-(3-chloro-4-fluorophenyl)cyclopropane-1-carboxamido)-N-ethyl-3-fluorobenzamide]					pest or weed control at 50 µg/cm2 [1, 7]: 50 to 100%; pest or weed control at 50 µg/cm2 [2, 8]: 50 to 100%
O=C(NCC(F)(F)F)c1cc(NC(=O)[C@H]2[C@H](c3ccc(F)c(Cl)c3)C2(Cl)Cl)cc(F)c1Cl (relative stereo) [F2034, trans-2-Chloro-5-(2,2-dichloro-3-(3-chloro-4-fluorophenyl)cyclopropane-1-carboxamido)-3-fluoro-N-(2,2,2-trifluoroethyl)benzamide]					pest or weed control at 50 µg/cm2 [1, 7]: 50 to 100%; pest or weed control at 50 µg/cm2 [2, 8]: 50 to 100%
CCNC(=O)c1cc(NC(=O)[C@H]2[C@H](c3ccc(F)c(Cl)c3)C2(Cl)Cl)cc(Cl)c1C (relative stereo) [F2041, trans-3-Chloro-5-(2,2-dichloro-3-(3-chloro-4-fluorophenyl)cyclopropane-1-carboxamido)-N-ethyl-2-methylbenzamide]					pest or weed control at 50 µg/cm2 [1, 7]: 50 to 100%; pest or weed control at 50 µg/cm2 [2, 8]: 50 to 100%
O=C(NCC(F)(F)F)c1cc(NC(=O)[C@H]2[C@H](c3ccc(F)c(Cl)c3)C2(Cl)Cl)cc(Cl)c1F (relative stereo) [F2045, trans-3-Chloro-5-(2,2-dichloro-3-(3-chloro-4-fluorophenyl)cyclopropane-1-carboxamido)-2-fluoro-N-(2,2,2-trifluoroethyl)benzamide]					pest or weed control at 50 µg/cm2 [1, 7]: 50 to 100%; pest or weed control at 50 µg/cm2 [2, 8]: 50 to 100%
O=C(NCC(F)(F)C(F)(F)F)c1cc(NC(=O)[C@H]2[C@H](c3ccc(F)c(Cl)c3)C2(Cl)Cl)cc(Cl)c1F (relative stereo) [F2046, trans-3-Chloro-5-(2,2-dichloro-3-(3-chloro-4-fluorophenyl)cyclopropane-1-carboxamido)-2-fluoro-N-(2,2,3,3,3-pentafluoropropyl)benzamide]					pest or weed control at 50 µg/cm2 [1, 7]: 50 to 100%; pest or weed control at 50 µg/cm2 [2, 8]: 50 to 100%
